Test results reported in US11028095B2, “Spiro-lactam and bis-spiro-lactam NMDA receptor modulators and uses thereof” (Aptinyx Inc., priority 2016, dated 2021).

Assays:
Format in all cases: biochemical
[1] = biological target: T1, NMDAR2A expressing HEK cell membranes (Homo sapiens, UniProt Q05586+Q12879); experiment: NMDAR agonist assay, [3H]MK-801 binding, NMDAR2A; details: 50 μM glutamate; for EC50: [3H]MK-801 binding, read-out: NMDAR2A: log EC50 (converted)
T1 construct: expressed in transfected cells; host or cells: HEK cells (membrane extract)
T1 sequence (Q12879 23-1464, other chains not shown): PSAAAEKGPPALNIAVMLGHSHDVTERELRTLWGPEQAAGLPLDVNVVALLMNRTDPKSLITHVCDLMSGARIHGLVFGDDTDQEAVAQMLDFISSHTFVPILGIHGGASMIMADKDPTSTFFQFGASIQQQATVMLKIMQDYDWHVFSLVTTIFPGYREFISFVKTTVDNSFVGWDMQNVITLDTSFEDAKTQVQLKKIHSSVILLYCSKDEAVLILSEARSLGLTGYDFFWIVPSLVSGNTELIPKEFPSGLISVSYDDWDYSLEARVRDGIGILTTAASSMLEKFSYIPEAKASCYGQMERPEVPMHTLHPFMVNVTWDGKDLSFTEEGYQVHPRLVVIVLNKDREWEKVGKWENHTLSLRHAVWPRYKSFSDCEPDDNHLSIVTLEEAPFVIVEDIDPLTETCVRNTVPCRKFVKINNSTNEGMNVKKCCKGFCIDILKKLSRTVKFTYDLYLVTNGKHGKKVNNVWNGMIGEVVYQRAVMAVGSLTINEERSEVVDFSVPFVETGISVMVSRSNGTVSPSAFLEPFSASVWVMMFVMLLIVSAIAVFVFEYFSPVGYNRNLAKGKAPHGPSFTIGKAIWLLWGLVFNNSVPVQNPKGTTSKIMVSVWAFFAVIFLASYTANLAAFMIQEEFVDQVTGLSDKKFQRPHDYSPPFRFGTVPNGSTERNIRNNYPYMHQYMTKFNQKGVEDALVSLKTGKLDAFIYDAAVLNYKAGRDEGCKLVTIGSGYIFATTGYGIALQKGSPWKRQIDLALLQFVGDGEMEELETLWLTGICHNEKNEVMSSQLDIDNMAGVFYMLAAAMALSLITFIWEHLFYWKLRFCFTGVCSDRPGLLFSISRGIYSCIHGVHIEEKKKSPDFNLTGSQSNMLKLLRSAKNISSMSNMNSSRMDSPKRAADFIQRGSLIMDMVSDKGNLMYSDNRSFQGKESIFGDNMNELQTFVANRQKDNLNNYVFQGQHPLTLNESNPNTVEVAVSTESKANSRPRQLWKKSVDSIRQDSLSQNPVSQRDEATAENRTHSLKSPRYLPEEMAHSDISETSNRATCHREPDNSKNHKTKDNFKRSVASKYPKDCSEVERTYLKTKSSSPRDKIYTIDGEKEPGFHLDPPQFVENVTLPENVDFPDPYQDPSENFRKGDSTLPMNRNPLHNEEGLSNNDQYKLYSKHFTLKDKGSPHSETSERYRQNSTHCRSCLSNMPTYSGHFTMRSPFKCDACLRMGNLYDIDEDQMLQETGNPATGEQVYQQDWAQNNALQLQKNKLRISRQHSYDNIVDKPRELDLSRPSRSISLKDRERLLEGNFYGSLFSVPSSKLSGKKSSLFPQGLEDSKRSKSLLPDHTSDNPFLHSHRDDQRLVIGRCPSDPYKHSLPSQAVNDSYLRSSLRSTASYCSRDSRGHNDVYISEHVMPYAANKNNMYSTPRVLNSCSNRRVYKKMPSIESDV
Protocol: (§1) (nonequilibrium conditions).
(§2) The baseline value was determined from the best fit curve of the DPM values modeled using the GraphPad program and the log(agonist) vs. response(three parameters) algorithm was then subtracted from all points in the dataset.

[2] = biological target: T2, NMDAR2A expressing HEK cell membranes (Homo sapiens, UniProt Q12879); experiment: NMDAR agonist assay, [3H]MK-801 binding, NMDAR2A; details: 50 μM glutamate; for EC50: [3H]MK-801 binding, read-out: NMDAR2A: log EC50 (converted)
T2 construct: expressed in transfected cells; host or cells: HEK cells (membrane extract)
Protocol: as §1, §2

[3] = biological target: T3, NMDAR2B expressing HEK cell membranes (Homo sapiens, UniProt Q13224); experiment: NMDAR agonist assay, [3H]MK-801 binding, NMDAR2B; details: 50 μM glutamate; for EC50: [3H]MK-801 binding, read-out: NMDAR2B log EC50 (converted)
T3 construct: expressed in transfected cells; host or cells: HEK cells (membrane extract)
T3 sequence (Q13224 27-1484, other chains not shown): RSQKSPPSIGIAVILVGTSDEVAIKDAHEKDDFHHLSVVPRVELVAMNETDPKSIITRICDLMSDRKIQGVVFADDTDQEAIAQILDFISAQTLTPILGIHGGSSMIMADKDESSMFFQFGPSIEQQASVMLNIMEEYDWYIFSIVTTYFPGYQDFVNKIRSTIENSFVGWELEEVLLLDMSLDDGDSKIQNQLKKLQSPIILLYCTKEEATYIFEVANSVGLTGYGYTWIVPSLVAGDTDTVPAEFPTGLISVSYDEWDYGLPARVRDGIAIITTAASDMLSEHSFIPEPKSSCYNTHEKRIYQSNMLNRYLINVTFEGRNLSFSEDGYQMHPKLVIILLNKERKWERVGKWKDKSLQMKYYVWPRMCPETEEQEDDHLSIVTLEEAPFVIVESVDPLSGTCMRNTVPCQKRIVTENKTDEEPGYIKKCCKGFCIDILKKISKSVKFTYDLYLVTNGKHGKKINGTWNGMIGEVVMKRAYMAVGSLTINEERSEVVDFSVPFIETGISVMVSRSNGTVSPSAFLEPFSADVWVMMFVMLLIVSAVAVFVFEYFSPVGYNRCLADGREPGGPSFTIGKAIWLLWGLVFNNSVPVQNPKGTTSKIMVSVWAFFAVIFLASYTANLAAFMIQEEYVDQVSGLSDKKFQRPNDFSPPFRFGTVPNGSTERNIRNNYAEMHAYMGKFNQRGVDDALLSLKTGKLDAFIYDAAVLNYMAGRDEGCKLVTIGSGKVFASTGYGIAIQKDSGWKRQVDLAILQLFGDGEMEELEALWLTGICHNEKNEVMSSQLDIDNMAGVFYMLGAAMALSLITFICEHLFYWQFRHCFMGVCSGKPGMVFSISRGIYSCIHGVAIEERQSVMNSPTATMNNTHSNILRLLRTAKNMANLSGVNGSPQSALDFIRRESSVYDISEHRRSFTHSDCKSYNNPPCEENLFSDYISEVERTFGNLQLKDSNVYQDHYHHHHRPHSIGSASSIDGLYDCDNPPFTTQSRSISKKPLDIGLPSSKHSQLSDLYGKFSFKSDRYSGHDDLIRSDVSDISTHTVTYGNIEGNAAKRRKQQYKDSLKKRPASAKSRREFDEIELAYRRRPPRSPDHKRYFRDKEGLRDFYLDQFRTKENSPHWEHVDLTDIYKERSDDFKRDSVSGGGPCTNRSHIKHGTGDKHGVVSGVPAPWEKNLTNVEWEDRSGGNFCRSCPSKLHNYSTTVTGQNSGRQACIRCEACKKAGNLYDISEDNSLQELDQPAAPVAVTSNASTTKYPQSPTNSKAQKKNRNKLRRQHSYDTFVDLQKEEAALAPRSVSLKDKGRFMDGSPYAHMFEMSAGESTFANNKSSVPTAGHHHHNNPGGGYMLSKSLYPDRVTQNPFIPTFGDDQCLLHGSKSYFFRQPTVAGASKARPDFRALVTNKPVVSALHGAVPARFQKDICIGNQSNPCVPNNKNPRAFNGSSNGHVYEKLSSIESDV
Protocol: as §1, §2

[4] = biological target: T4, NMDAR2B expressing HEK cell membranes (Homo sapiens, UniProt Q05586+Q13224); experiment: NMDAR agonist assay, [3H]MK-801 binding, NMDAR2B; details: 50 μM glutamate; for EC50: [3H]MK-801 binding, read-out: NMDAR2B log EC50 (converted); for Emax: relative to 1 mM glycine, read-out: NMDAR2B: % maximal [3H]MK-801 binding relative to 1 mM glycine
T4 construct: expressed in transfected cells; host or cells: HEK cells (membrane extract)
T4 sequence (Q13224 27-1484, other chains not shown): as above
Protocol: as §1, §2

EC50 [1] [nM]	NMDAR2A: % maximal [3H]MK-801 binding relative to 1 mM glycine [2]	NMDAR2B: % maximal [3H]MK-801 binding relative to 1 mM glycine [3]	EC50 [4] [nM]	EC50 [2] [nM]	EC50 [3] [nM]	Emax [4] [%]	Emax ([1]; relative to 1 mM glycine, read-out: NMDAR2A: % maximal [3H]MK-801 binding relative to 1 mM glycine) [%]	SMILES
> 100	− (−=0)	− (−=0)	> 100					CC(C)C(=O)N1C(C(=O)N[C@H](C(N)=O)[C@@H](C)O)CCC12CNC2=O (single isomer, unassigned) [AR]
	++ (>100%=++)	+ (<100%=+)		< 1	< 1			CC(O)C(NCC1CCC2(CNC2=O)N1)C(N)=O (single isomer, unassigned) [CN]
< 1		− (−=0)	> 100				< 100	C[C@@H](O)[C@H](NC(=O)C1CCC2(CNC2=O)N1Cc1ccccc1)C(N)=O (single isomer, unassigned) [AL-1]
> 100	− (−=0)	− (−=0)			> 100			C[C@@H](O)[C@H](NC1CN(C(=O)OC(C)(C)C)C2(CNC2=O)C1)C(N)=O (single isomer, unassigned) [CH]
> 100	− (−=0)					> 100		CC(O)C(C(N)=O)N(C)CC1CCC2(CNC2=O)N1 (single isomer, unassigned) [CU]
> 100	− (−=0)		< 1			> 100		CNC(=O)C(NCC1CCC2(CNC2=O)N1)C(C)O (single isomer, unassigned) [CQ]
	+ (<100%=+)	+ (<100%=+)	< 1					CC(C)CN1C(C(=O)N[C@H](C(N)=O)[C@@H](C)O)CCC12CNC2=O (single isomer, unassigned) [BB]
	+ (<100%=+)	+ (<100%=+)		< 1	< 1			CC(C)CN1C(C(N)=O)CCC12CNC2=O (single isomer, unassigned) [DD, 5-isobutyl-1-oxo-2,5-diazaspiro[3.4]octane-6-carboxamide]
	+ (<100%=+)	− (−=0)	> 100					C[C@@H](O)[C@H](NC(=O)C1CCC2(CNC2=O)N1Cc1ccccc1)C(N)=O (single isomer, unassigned) [AL-2]
< 1	+ (<100%=+)	+ (<100%=+)			< 1			C[C@@H](O)[C@H](NC(=O)C1CCC2(CNC2=O)N1C)C(N)=O (single isomer, unassigned) [BD]

Second part, the compound before the results:

SMILES	EC50 [1] [nM]	NMDAR2A: % maximal [3H]MK-801 binding relative to 1 mM glycine [2]	NMDAR2B: % maximal [3H]MK-801 binding relative to 1 mM glycine [3]	EC50 [4] [nM]	EC50 [2] [nM]	EC50 [3] [nM]	Emax [4] [%]	Emax ([1]; relative to 1 mM glycine, read-out: NMDAR2A: % maximal [3H]MK-801 binding relative to 1 mM glycine) [%]
CC(O)C(NCC1CCC2(CN(OCc3ccccc3)C2=O)N1)C(N)=O (single isomer, unassigned) [CL]	< 1	+ (<100%=+)	+ (<100%=+)			< 1		
CNC(=O)C(NCC1CCC2(CN(OCc3ccccc3)C2=O)N1)C(C)O (single isomer, unassigned) [CP]					< 1	< 1		
CC(C)(C)OC(=O)N1C2(CCC13CNC3=O)CNC2=O (centres unmarked) [AA-1, tert-butyl 1,7-dioxo-2,5,8-triazadispiro[3.1.36.24]undecane-5-carboxylate]	> 100	− (−=0)		> 100			0	
C[C@@H](O)[C@H](NCC1CCC2(CN(OCc3ccccc3)C2=O)N1C(=O)OC(C)(C)C)C(=O)N(C)C (single isomer, unassigned) [BQ]	> 100	− (−=0)		< 1			< 100	
CC(C)(C)OC(=O)N1C2(CCC13CNC3=O)CNC2=O (single isomer, unassigned) [AA-3, tert-butyl 1,7-dioxo-2,5,8-triazadispiro[3.1.36.24]undecane-5-carboxylate]		− (−=0)	− (−=0)		> 100	> 100		
O=C1NCC12CN(Cc1ccc(F)cc1)C1(CNC1=O)C2 (single isomer, unassigned) [DL, 10-(4-fluorobenzyl)-2,8,10-triazadispiro[3.1.3^6.2^4]undecane-1,7-dione]	> 100	− (−=0)	+ (<100%=+)			< 1		
O=C1NCC12CN(Cc1ccc(F)cc1)C1(CNC1=O)C2 (single isomer, unassigned) [DN, 10-(4-fluorobenzyl)-2,8,10-triazadispiro[3.1.3^6.2^4]undecane-1,7-dione]	< 1	+ (<100%=+)	+ (<100%=+)			< 1		
CNC(=O)C(C(C)O)N(C)CC1CCC2(CN(OCc3ccccc3)C2=O)N1 (single isomer, unassigned) [CX]		+ (<100%=+)	++ (>100%=++)		< 1	< 1		
CNC(=O)C(NCC1CCC2(CNC2=O)N1)C(C)O (single isomer, unassigned) [CR]	< 1	+ (<100%=+)	++ (>100%=++)			< 1		
CC(C)(C)OC(=O)N1C2(CCC13CNC3=O)CNC2=O (single isomer, unassigned) [AA-2, tert-butyl 1,7-dioxo-2,5,8-triazadispiro[3.1.36.24]undecane-5-carboxylate]		+ (<100%=+)	− (−=0)			> 100		
O=C1NCC12CN(Cc1ccc(F)cc1)C1(CNC1=O)C2 (single isomer, unassigned) [DM, 10-(4-fluorobenzyl)-2,8,10-triazadispiro[3.1.3^6.2^4]undecane-1,7-dione]	< 1	+ (<100%=+)	+ (<100%=+)			< 1		
CC(O)C(C(N)=O)N(C)CC1CCC2(CN(OCc3ccccc3)C2=O)N1 (single isomer, unassigned) [CT]	< 1	+ (<100%=+)		< 1			< 100	
NC(=O)C1CCC2(CNC2=O)N1Cc1ccccc1 (single isomer, unassigned) [DF, 5-benzyl-1-oxo-2,5-diazaspiro[3.4]octane-6-carboxamide]					< 1	< 1		
O=C1NCC12CN(Cc1ccc(F)cc1)C1(CNC1=O)C2 (single isomer, unassigned) [DK, 10-(4-fluorobenzyl)-2,8,10-triazadispiro[3.1.3^6.2^4]undecane-1,7-dione]	< 1	+ (<100%=+)		< 1			< 100	
CC(O)C(NCC1CCC2(CN(OCc3ccccc3)C2=O)N1)C(N)=O (single isomer, unassigned) [CK]	> 100	− (−=0)		< 1			< 100	
CNC(=O)[C@@H](NCC1CCC2(CN(OCc3ccccc3)C2=O)N1C(=O)OC(C)(C)C)[C@@H](C)O (single isomer, unassigned) [BN]					> 100	> 100		
CC(C)(C)OC(=O)N1C(C(N)=O)CCC12CN(OCc1ccccc1)C2=O (single isomer, unassigned) [BG, tert-butyl 2-(benzyloxy)-6-carbamoyl-1-oxo-2,5-diazaspiro[3.4]octane-5-carboxylate]	< 1	+ (<100%=+)					< 100	
NC(=O)C1CCC2(CN(OCc3ccccc3)C2=O)N1 (single isomer, unassigned) [CZ, 2-(benzyloxy)-1-oxo-2,5-diazaspiro[3.4]octane-6-carboxamide]					< 1			
NC(=O)C1CCC2(CNC2=O)N1Cc1ccc(F)cc1 (single isomer, unassigned) [DH, 5-(4-fluorobenzyl)-1-oxo-2,5-diazaspiro[3.4]octane-6-carboxamide]		+ (<100%=+)	++ (>100%=++)	< 1	< 1			
CC(C)C(=O)N1C2(CCC13CNC3=O)CNC2=O (single isomer, unassigned) [AI, 5-isobutyryl-2,5,8-triazadispiro[3.1.36.24]undecane-1,7-dione]		+ (<100%=+)	− (−=0)	> 100	< 1			
C[C@@H](O)[C@H](NCC1CCC2(CN(OCc3ccccc3)C2=O)N1C(=O)OC(C)(C)C)C(=O)N(C)C (single isomer, unassigned) [BR]	< 1	+ (<100%=+)	++ (>100%=++)					
CC(O)C(C(N)=O)N(C)CC1CCC2(CN(OCc3ccccc3)C2=O)N1 (single isomer, unassigned) [CS]	> 100	− (−=0)	+ (<100%=+)			< 1		
